Several values for one entry are separate records, joined by “and”; a condition that tells them apart may be missing. Identical values can stand only once. Inconclusive results and toxic doses are left out.
Tested on: CD2F1 mice, L1210 leukemia ip, survival T/C
Experiment: NCI In Vivo Anticancer Drug Screen. Data for tumor model L1210 Leukemia (intraperitoneal) in CD2F1 (CDF1) mice
Details: higher = longer survival
Method in brief: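 Ratio T/C, where T is the treated-group value and C the vehicle-dosed control value, from mice implanted with a transplantable tumor.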

[1] = endpoint: mean survival time, dose: 100.0 mg/kg/injection, schedule: Q01DX009 (ip), vehicle: saline with Tween-80
[2] = endpoint: mean survival time, dose: 200.0 mg/kg/injection, schedule: Q01DX009 (ip), vehicle: saline with Tween-80
[3] = endpoint: mean survival time, dose: 50.0 mg/kg/injection, schedule: Q01DX009 (ip), vehicle: saline with Tween-80
[4] = endpoint: mean survival time, dose: 100.0 mg/kg/injection, schedule: Q04DX003 (ip), vehicle: saline with Tween-80
[5] = endpoint: mean survival time, dose: 200.0 mg/kg/injection, schedule: Q04DX003 (ip), vehicle: saline with Tween-80
[6] = endpoint: mean survival time, dose: 400.0 mg/kg/injection, schedule: Q04DX003 (ip), vehicle: saline with Tween-80
[7] = endpoint: mean survival time, dose: 100.0 mg/kg/injection, schedule: Q01DX001 (ip), vehicle: saline
[8] = endpoint: mean survival time, dose: 200.0 mg/kg/injection, schedule: Q01DX001 (ip), vehicle: saline
[9] = endpoint: mean survival time, dose: 400.0 mg/kg/injection, schedule: Q01DX001 (ip), vehicle: saline
[10] = endpoint: mean survival time, dose: 100.0 mg/kg/injection, schedule: Q01DX001 (ip), vehicle: saline with Tween-80
[11] = endpoint: mean survival time, dose: 200.0 mg/kg/injection, schedule: Q01DX001 (ip), vehicle: saline with Tween-80
[12] = endpoint: mean survival time, dose: 400.0 mg/kg/injection, schedule: Q01DX001 (ip), vehicle: saline with Tween-80

SMILES: Brc1c(NC2=NCCN2)ccc2nccnc12
- T/C (endpoint: median survival time, dose: 1.56 mg/kg/injection, schedule: Q01DX009 (ip), vehicle: saline): 102 % of control
- T/C (endpoint: median survival time, dose: 3.12 mg/kg/injection, schedule: Q01DX009 (ip), vehicle: saline): 96 % of control and 111 % of control
- T/C (endpoint: median survival time, dose: 6.25 mg/kg/injection, schedule: Q01DX009 (ip), vehicle: saline): 115 % of control and 119 % of control and 109 % of control
- T/C (endpoint: median survival time, dose: 100.0 mg/kg/injection, schedule: Q01DX009 (ip), vehicle: saline): 118 % of control

SMILES: NC(N)=NC(N)=Nc1ccc(Cl)cc1
- T/C [1]: 104 % of control
- T/C [2]: 106 % of control

SMILES: CC(=O)NC1C(O)C(NC(C)=O)C(OC(C)=O)C(OC(C)=O)C1OC(C)=O (stereo not given)
- T/C [1]: 95 % of control
- T/C [2]: 103 % of control
- T/C (endpoint: mean survival time, dose: 400.0 mg/kg/injection, schedule: Q01DX009 (ip), vehicle: saline with Tween-80): 103 % of control

SMILES: N/C(=N/O)NO
- T/C (endpoint: median survival time, dose: 50.0 mg/kg/injection, schedule: Q01DX005 (ip), vehicle: saline): 109 % of control
- T/C (endpoint: median survival time, dose: 100.0 mg/kg/injection, schedule: Q01DX005 (ip), vehicle: saline): 110 % of control and 112 % of control
- T/C (endpoint: median survival time, dose: 200.0 mg/kg/injection, schedule: Q01DX005 (ip), vehicle: saline): 120 % of control and 123 % of control

SMILES: CC(S)CN (stereo not given)
- T/C (endpoint: mean survival time, dose: 100.0 mg/kg/injection, schedule: Q01DX009 (ip), vehicle: saline): 96 % of control
- T/C (endpoint: mean survival time, dose: 100.0 mg/kg/injection, schedule: Q04DX003 (ip), vehicle: saline): 101 % of control
- T/C (endpoint: mean survival time, dose: 200.0 mg/kg/injection, schedule: Q01DX009 (ip), vehicle: saline): 94 % of control
- T/C (endpoint: mean survival time, dose: 200.0 mg/kg/injection, schedule: Q04DX003 (ip), vehicle: saline): 98 % of control
- T/C (endpoint: mean survival time, dose: 400.0 mg/kg/injection, schedule: Q01DX009 (ip), vehicle: saline): 101 % of control
- T/C (endpoint: mean survival time, dose: 400.0 mg/kg/injection, schedule: Q04DX003 (ip), vehicle: saline): 104 % of control

SMILES: CC(C)CC(C)NCCO (stereo not given)
- T/C (endpoint: mean survival time, dose: 75.0 mg/kg/injection, schedule: Q01DX001 (ip), vehicle: saline): 98 % of control
- T/C (endpoint: mean survival time, dose: 150.0 mg/kg/injection, schedule: Q01DX001 (ip), vehicle: saline): 100 % of control

SMILES: O=C(NO)c1ccc(O)c(O)c1O
- T/C (endpoint: mean survival time, dose: 25.0 mg/kg/injection, schedule: Q01DX009 (ip), vehicle: distilled water + Tween-80): 110 % of control
- T/C (endpoint: mean survival time, dose: 50.0 mg/kg/injection, schedule: Q01DX009 (ip), vehicle: distilled water + Tween-80): 108 % of control
- T/C (endpoint: mean survival time, dose: 100.0 mg/kg/injection, schedule: Q01DX009 (ip), vehicle: distilled water + Tween-80): 116 % of control

SMILES: CCCCC(=O)NN
- T/C (endpoint: mean survival time, dose: 12.5 mg/kg/injection, schedule: Q01DX009 (ip), vehicle: saline with Tween-80): 90 % of control
- T/C (endpoint: mean survival time, dose: 25.0 mg/kg/injection, schedule: Q01DX009 (ip), vehicle: saline with Tween-80): 104 % of control
- T/C [3]: 118 % of control

SMILES: NC(=S)N/N=C\c1cccs1
- T/C [4]: 97 % of control
- T/C [5]: 100 % of control
- T/C [6]: 96 % of control

SMILES: O=[N+]([O-])c1ccc(/C=C/C=C/C2(CCl)OCCO2)cc1
- T/C (endpoint: mean survival time, dose: 100.0 mg/kg/injection, schedule: Q01DX001 (ip), vehicle: Klucel (hydroxypropylcellulose) (HPC)): 100 % of control
- T/C (endpoint: mean survival time, dose: 200.0 mg/kg/injection, schedule: Q01DX001 (ip), vehicle: Klucel (hydroxypropylcellulose) (HPC)): 112 % of control
- T/C (endpoint: mean survival time, dose: 400.0 mg/kg/injection, schedule: Q01DX001 (ip), vehicle: Klucel (hydroxypropylcellulose) (HPC)): 100 % of control

SMILES: O=C(O)c1cccc(COc2ccc([N+](=O)[O-])cc2Cl)c1
- T/C [1]: 101 % of control
- T/C [4]: 91 % of control
- T/C [2]: 93 % of control
- T/C [5]: 86 % of control
- T/C [6]: 97 % of control

SMILES: CN=C(N)/N=C(\N)C(Cl)(Cl)Cl
- T/C [7]: 111 % of control
- T/C [8]: 86 % of control
- T/C [9]: 90 % of control

SMILES: Cc1c(N)nc([C@H](CC(N)=O)NC[C@H](N)C(N)=O)nc1C(=O)N[C@H](C(=O)N[C@H](C)[C@@H](O)CC(=O)N[C@H](C(=O)NC(O[C@@H]1O[C@@H](C)[C@@H](N)[C@@H](O)[C@H]1O)C(O)c1nc(-c2nc(C(=O)NCCCCN)cs2)cs1)[C@@H](C)O)[C@@H](O[C@@H]1O[C@@H](CO)[C@@H](O)[C@H](O)[C@@H]1O[C@H]1O[C@H](CO)[C@@H](O)[C@H](OC(N)=O)[C@@H]1O)c1c[nH]cn1 (stereo not given in full)
- T/C (endpoint: median survival time, dose: 1.0 mg/kg/injection, schedule: Q01DX009 (ip), vehicle: saline): 106 % of control
- T/C (endpoint: median survival time, dose: 2.0 mg/kg/injection, schedule: Q01DX009 (ip), vehicle: saline): 112 % of control
- T/C (endpoint: median survival time, dose: 4.0 mg/kg/injection, schedule: Q01DX009 (ip), vehicle: saline): 119 % of control
- T/C (endpoint: median survival time, dose: 8.0 mg/kg/injection, schedule: Q01DX009 (ip), vehicle: saline): 118 % of control
- T/C (endpoint: median survival time, dose: 16.0 mg/kg/injection, schedule: Q01DX009 (ip), vehicle: saline): 120 % of control
- T/C (endpoint: median survival time, dose: 32.0 mg/kg/injection, schedule: Q01DX009 (ip), vehicle: saline): 108 % of control

SMILES: CN(C)c1ccc(/C=C/c2ccnc3ccccc23)cc1
- T/C (endpoint: mean survival time, dose: 12.5 mg/kg/injection, schedule: Q01DX Z (ip), vehicle: saline): 103 % of control
- T/C (endpoint: mean survival time, dose: 16.0 mg/kg/injection, schedule: Q01DX008 (iv), vehicle: saline): 100 % of control
- T/C (endpoint: mean survival time, dose: 25.0 mg/kg/injection, schedule: Q01DX Z (ip), vehicle: saline): 103 % of control
- T/C (endpoint: mean survival time, dose: 32.0 mg/kg/injection, schedule: Q01DX008 (iv), vehicle: saline): 100 % of control
- T/C (endpoint: mean survival time, dose: 50.0 mg/kg/injection, schedule: Q01DX Z (ip), vehicle: saline): 103 % of control
- T/C (endpoint: mean survival time, dose: 64.0 mg/kg/injection, schedule: Q01DX008 (iv), vehicle: saline): 102 % of control

SMILES: CC(=O)OC1C2(CC3N4C(=O)C5(CO)SSC4(CC31O)C(=O)N5C)OC(C)C(C)(C)C2=O (stereo not given)
- T/C (endpoint: mean survival time, dose: 0.15 mg/kg/injection, schedule: Q01DX009 (ip), vehicle: saline): 101 % of control
- T/C (endpoint: mean survival time, dose: 0.16 mg/kg/injection, schedule: Q01DX009 (ip), vehicle: saline with Tween-80): 97 % of control
- T/C (endpoint: mean survival time, dose: 0.31 mg/kg/injection, schedule: Q01DX009 (ip), vehicle: saline with Tween-80): 101 % of control
- T/C (endpoint: mean survival time, dose: 0.31 mg/kg/injection, schedule: Q01DX009 (ip), vehicle: saline): 100 % of control
- T/C (endpoint: mean survival time, dose: 0.62 mg/kg/injection, schedule: Q01DX009 (ip), vehicle: saline): 100 % of control
- T/C (endpoint: mean survival time, dose: 0.63 mg/kg/injection, schedule: Q01DX009 (ip), vehicle: saline with Tween-80): 101 % of control
- T/C (endpoint: mean survival time, dose: 1.25 mg/kg/injection, schedule: Q01DX009 (ip), vehicle: saline): 120 % of control and 98 % of control and 100 % of control
- T/C (endpoint: mean survival time, dose: 2.5 mg/kg/injection, schedule: Q01DX009 (ip), vehicle: saline with Tween-80): 98 % of control
- T/C (endpoint: mean survival time, dose: 2.5 mg/kg/injection, schedule: Q01DX009 (ip), vehicle: saline): 107 % of control

SMILES: OC1CCC2CCC1C2 (stereo not given)
- T/C [10]: 102 % of control
- T/C [11]: 104 % of control
- T/C [12]: 101 % of control

SMILES: Cc1ccc(NC(=O)N(CCCl)N=O)c(C)c1
- T/C (endpoint: mean survival time, dose: 4.4 mg/kg/injection, schedule: Q01DX009 (ip), vehicle: other): 167 % of control
- T/C (endpoint: mean survival time, dose: 6.6 mg/kg/injection, schedule: Q01DX009 (ip), vehicle: other): 161 % of control
- T/C (endpoint: mean survival time, dose: 33.0 mg/kg/injection, schedule: Q01DX001 (ip), vehicle: other): 183 % of control
- T/C (endpoint: mean survival time, dose: 50.0 mg/kg/injection, schedule: Q01DX001 (ip), vehicle: other): 200 % of control
- T/C (endpoint: mean survival time, dose: 75.0 mg/kg/injection, schedule: Q01DX001 (ip), vehicle: other): 178 % of control

SMILES: CC(C)(C)C1CC(=O)N(c2ccccc2)N1 (stereo not given)
- T/C [4]: 106 % of control
- T/C [5]: 98 % of control
- T/C [6]: 98 % of control

SMILES: CC(C)(C)NSc1nc2ccccc2s1
- T/C [4]: 96 % of control
- T/C [5]: 96 % of control

SMILES: Cc1c(/C=N/NC=O)[nH]c(=O)[nH]c1=O
- T/C [7]: 89 % of control
- T/C [8]: 91 % of control
- T/C [9]: 86 % of control

SMILES: CCCCCCN(CCCCCC)CC(O)c1cccc2c1cc(Cl)c1ccccc12 (stereo not given)
- T/C [3]: 96 % of control
- T/C [1]: 100 % of control
- T/C [4]: 95 % of control
- T/C [2]: 98 % of control
- T/C [5]: 101 % of control

SMILES: CC1SC(=Nc2ccc(S(N)(=O)=O)cc2)NC1=O (stereo not given)
- T/C (endpoint: mean survival time, dose: 50.0 mg/kg/injection, schedule: Q04DX002 (ip), vehicle: saline with Tween-80): 105 % of control
- T/C (endpoint: mean survival time, dose: 100.0 mg/kg/injection, schedule: Q04DX002 (ip), vehicle: saline with Tween-80): 105 % of control
- T/C [11]: 89 % of control
- T/C (endpoint: mean survival time, dose: 200.0 mg/kg/injection, schedule: Q04DX002 (ip), vehicle: saline with Tween-80): 102 % of control

SMILES: NC(CC(=O)c1ccccc1)C(=O)O (stereo not given)
- T/C [7]: 98 % of control
- T/C [8]: 93 % of control
- T/C [9]: 90 % of control

SMILES: CN(C)C/C(=N\OC(=O)c1ccccc1)c1ccc(Cl)cc1
- T/C [3]: 107 % of control
- T/C [10]: 96 % of control
- T/C [1]: 96 % of control
- T/C [11]: 104 % of control
- T/C [2]: 96 % of control
- T/C [12]: 93 % of control

— PubChem BioAssay AID256 (DTP/NCI, 2004)
